According to PubChem BioAssay AID248 (DTP/NCI, 2004):
“And” between values parts separate entries of the source, which are not always exact repeats. Equal values may be shown once. Toxic doses and inconclusive results are not listed. Cut-off read from the data, not from the text of the source: active = T/C of 150% or more; inactive = T/C below 125%.

Test system: L1210 leukemia ip in BDF1 mice, survival T/C
Assay: NCI In Vivo Anticancer Drug Screen. Data for tumor model L1210 Leukemia (intraperitoneal) in B6D2F1 (BDF1) mice
Settings: endpoint: mean survival time, higher = longer survival
Procedure, shortened: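 Transplanted-tumor mice were given test agent; controls received vehicle only. Survival readings from the two groups were divided (treated over control).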

[1] = dose: 100.0 mg/kg/injection, schedule: Q01DX001 (ip), vehicle: Klucel (hydroxypropylcellulose) (HPC)
[2] = dose: 100.0 mg/kg/injection, schedule: Q01DX009 (ip), vehicle: Klucel (hydroxypropylcellulose) (HPC)
[3] = dose: 200.0 mg/kg/injection, schedule: Q01DX001 (ip), vehicle: Klucel (hydroxypropylcellulose) (HPC)
[4] = dose: 200.0 mg/kg/injection, schedule: Q01DX009 (ip), vehicle: Klucel (hydroxypropylcellulose) (HPC)
[5] = dose: 400.0 mg/kg/injection, schedule: Q01DX001 (ip), vehicle: Klucel (hydroxypropylcellulose) (HPC)
[6] = dose: 400.0 mg/kg/injection, schedule: Q01DX009 (ip), vehicle: Klucel (hydroxypropylcellulose) (HPC)
[7] = dose: 100.0 mg/kg/injection, schedule: Q04DX003 (ip), vehicle: Klucel (hydroxypropylcellulose) (HPC)
[8] = dose: 200.0 mg/kg/injection, schedule: Q04DX003 (ip), vehicle: Klucel (hydroxypropylcellulose) (HPC)
[9] = dose: 400.0 mg/kg/injection, schedule: Q04DX003 (ip), vehicle: Klucel (hydroxypropylcellulose) (HPC)
[10] = dose: 100.0 mg/kg/injection, schedule: Q04DX003 (ip), vehicle: saline with Tween-80
[11] = dose: 200.0 mg/kg/injection, schedule: Q04DX003 (ip), vehicle: saline with Tween-80
[12] = dose: 400.0 mg/kg/injection, schedule: Q04DX003 (ip), vehicle: saline with Tween-80
[13] = dose: 100.0 mg/kg/injection, schedule: Q01DX001 (ip), vehicle: other
[14] = dose: 200.0 mg/kg/injection, schedule: Q01DX001 (ip), vehicle: other
[15] = dose: 400.0 mg/kg/injection, schedule: Q01DX001 (ip), vehicle: other
[16] = dose: 100.0 mg/kg/injection, schedule: Q01DX001 (ip), vehicle: saline with Tween-80
[17] = dose: 200.0 mg/kg/injection, schedule: Q01DX001 (ip), vehicle: saline with Tween-80
[18] = dose: 100.0 mg/kg/injection, schedule: Q01DX009 (ip), vehicle: saline with Tween-80
[19] = dose: 200.0 mg/kg/injection, schedule: Q01DX009 (ip), vehicle: saline with Tween-80

Measured: T/C

NP(=O)(OCCCOCc1ccccc1)N(CCCl)CCCl (stereo not drawn)
inactive: dose: 125.0 mg/kg/injection, schedule: Q01DX001 (ip), vehicle: saline 103 % of control | dose: 250.0 mg/kg/injection, schedule: Q01DX001 (ip), vehicle: saline 108 % of control | dose: 500.0 mg/kg/injection, schedule: Q01DX001 (ip), vehicle: saline 100 % of control

CC1(C)c2ccccc2C(=O)/C(=C/c2ccccc2)C1NC1CCCCC1 (stereo not drawn)
inactive: [1] 95 % of control | [2] 102 % of control | [3] 93 % of control | [4] 96 % of control | [5] 92 % of control | [6] 106 % of control

COc1ccc(C(=O)OCCN(CCOC(=O)c2ccc(OC)cc2)c2c[nH]c(=O)[nH]c2=O)cc1
inactive: dose: 50.0 mg/kg/injection, schedule: Q01DX001 (ip), vehicle: carboxymethylcellulose (CMC) 106 % of control | dose: 100.0 mg/kg/injection, schedule: Q01DX001 (ip), vehicle: carboxymethylcellulose (CMC) 93 % of control | dose: 200.0 mg/kg/injection, schedule: Q01DX001 (ip), vehicle: carboxymethylcellulose (CMC) 95 % of control | dose: 400.0 mg/kg/injection, schedule: Q01DX001 (ip), vehicle: carboxymethylcellulose (CMC) 93 % of control

CCOC(=O)CSC(=S)N(C)C
inactive: [1] 102 % of control | [2] 95 % of control and 96 % of control and 111 % of control | dose: 100.0 mg/kg/injection, schedule: Q04DX002 (ip), vehicle: Klucel (hydroxypropylcellulose) (HPC) 102 % of control and 106 % of control | [7] 101 % of control | [3] 102 % of control | [4] 97 % of control and 104 % of control and 89 % of control | dose: 200.0 mg/kg/injection, schedule: Q04DX002 (ip), vehicle: Klucel (hydroxypropylcellulose) (HPC) 102 % of control and 103 % of control | [8] 93 % of control | [5] 96 % of control | [6] 89 % of control | dose: 400.0 mg/kg/injection, schedule: Q04DX002 (ip), vehicle: Klucel (hydroxypropylcellulose) (HPC) 103 % of control and 104 % of control | [9] 93 % of control

O=C(c1ccccc1)C1CSC1Br (stereo not drawn)
inactive: [10] 102 % of control | [11] 98 % of control | [12] 100 % of control

OCNC(=S)c1c(Cl)cccc1Cl
inactive: [10] 100 % of control | [11] 102 % of control | [12] 102 % of control

CS(=O)(=O)CCC(NC(=O)NCCCl)C(=O)O (stereo not drawn)
inactive: [1] 104 % of control | [3] 96 % of control | [5] 100 % of control

O=CC1=C(Cl)c2ccccc2CC1
inactive: dose: 12.5 mg/kg/injection, schedule: Q04DX003 (ip), vehicle: acetone 98 % of control

CCOCCNC1=C(Cl)C(=O)c2ccccc2C1=O
inactive: [13] 97 % of control | [14] 93 % of control | [15] 90 % of control

Oc1ccccc1N=Cc1c(O)ccc2ccccc12
inactive: [13] 96 % of control | [14] 98 % of control | [15] 101 % of control

Cc1ccccc1NC(=O)Nc1ccccc1F
inactive: [2] 99 % of control | [7] 96 % of control | [4] 99 % of control | [8] 103 % of control | [6] 104 % of control | [9] 110 % of control

CC1(C)N=C(N)N=C(N)N1NC(=O)c1ccc(F)cc1
inactive: dose: 100.0 mg/kg/injection, schedule: Q01DX009 (ip), vehicle: saline 102 % of control | dose: 200.0 mg/kg/injection, schedule: Q01DX009 (ip), vehicle: saline 96 % of control

Nc1nc(N)c2ncn(C3CC(CO)C(O)C3O)c2n1 (stereo not drawn)
inactive: dose: 6.25 mg/kg/injection, schedule: Q01DX009 (ip), vehicle: saline with Tween-80 91 % of control | dose: 12.5 mg/kg/injection, schedule: Q01DX009 (ip), vehicle: saline with Tween-80 98 % of control | dose: 25.0 mg/kg/injection, schedule: Q01DX009 (ip), vehicle: saline with Tween-80 102 % of control

O=C(Nc1cc([N+](=O)[O-])ccc1F)Oc1cccc(C(F)(F)F)c1
inactive: [7] 89 % of control | [8] 97 % of control | [9] 95 % of control

CCCCCCN(CCCCCC)CP(=S)(CN(CCCCCC)CCCCCC)CN(CCCCCC)CCCCCC
inactive: [16] 99 % of control | [17] 104 % of control

Cc1ccc(S(=O)(=O)Nc2ccc(C(=O)NC(CCC(=O)O)C(=O)O)cc2)cc1 (stereo not drawn)
inactive: dose: 100.0 mg/kg/injection, schedule: Q04DX003 (ip), vehicle: gum acacia 95 % of control | dose: 200.0 mg/kg/injection, schedule: Q04DX003 (ip), vehicle: gum acacia 98 % of control | dose: 400.0 mg/kg/injection, schedule: Q04DX003 (ip), vehicle: gum acacia 95 % of control

CC(=O)c1ccc(OS(=O)(=O)c2ccc([N+](=O)[O-])cc2)cc1
inactive: [2] 90 % of control | [7] 94 % of control | [4] 90 % of control | [8] 94 % of control | [6] 86 % of control | [9] 89 % of control

CCC(C)C(CO)c1ccccc1 (stereo not drawn)
inactive: [10] 93 % of control | [11] 91 % of control

[N-]=[N+]=Nc1ccc(C(=O)O)cc1
inactive: [1] 100 % of control | [3] 100 % of control | [5] 103 % of control

Cc1ccc(S(=O)(=O)Oc2ccccc2)cc1
inactive: [2] 96 % of control | [7] 94 % of control | [4] 100 % of control | [8] 94 % of control | [6] 97 % of control | [9] 92 % of control

O=C(NC/C=C/Br)C(F)(F)F
inactive: [16] 118 % of control | [10] 98 % of control | [17] 96 % of control | [11] 95 % of control | dose: 400.0 mg/kg/injection, schedule: Q01DX001 (ip), vehicle: saline with Tween-80 95 % of control | [12] 97 % of control

CCOC(=O)CN1C(=O)NC(C)(c2ccc(Cl)cc2)C1=O (stereo not drawn)
inactive: [10] 106 % of control | [11] 98 % of control | [12] 96 % of control

COc1ccc(OC)c(CCl)c1
inactive: dose: 75.0 mg/kg/injection, schedule: Q01DX009 (ip), vehicle: Klucel (hydroxypropylcellulose) (HPC) 97 % of control | dose: 150.0 mg/kg/injection, schedule: Q01DX009 (ip), vehicle: Klucel (hydroxypropylcellulose) (HPC) 103 % of control | dose: 300.0 mg/kg/injection, schedule: Q01DX009 (ip), vehicle: Klucel (hydroxypropylcellulose) (HPC) 91 % of control

BrC1(Br)C2C3C=CC4C(C=C3)C4C21 (stereo not drawn)
inactive: dose: 50.0 mg/kg/injection, schedule: Q01DX001 (ip), vehicle: Klucel (hydroxypropylcellulose) (HPC) 105 % of control | [1] 103 % of control | [3] 108 % of control

CC(C)=NC(=O)NO.[Cl][Co][Cl]
inactive: dose: 9.4 mg/kg/injection, schedule: Q04DX003 (ip), vehicle: saline 100 % of control | dose: 18.75 mg/kg/injection, schedule: Q04DX003 (ip), vehicle: saline 107 % of control | dose: 37.5 mg/kg/injection, schedule: Q04DX003 (ip), vehicle: saline 107 % of control | dose: 75.0 mg/kg/injection, schedule: Q01DX001 (ip), vehicle: saline 103 % of control

O=C(O)CSc1ccc(NC(=O)Nc2ccccc2F)cc1
inactive: dose: 100.0 mg/kg/injection, schedule: Q01DX001 (ip), vehicle: saline 90 % of control | [18] 92 % of control | dose: 100.0 mg/kg/injection, schedule: Q04DX003 (ip), vehicle: saline 100 % of control | dose: 200.0 mg/kg/injection, schedule: Q01DX001 (ip), vehicle: saline 88 % of control | [19] 89 % of control | dose: 200.0 mg/kg/injection, schedule: Q04DX003 (ip), vehicle: saline 94 % of control | dose: 400.0 mg/kg/injection, schedule: Q01DX001 (ip), vehicle: saline 92 % of control | dose: 400.0 mg/kg/injection, schedule: Q01DX009 (ip), vehicle: saline with Tween-80 86 % of control | dose: 400.0 mg/kg/injection, schedule: Q04DX003 (ip), vehicle: saline 92 % of control

Cc1cc(N(C)c2ccccc2)nc(N)n1
inactive: dose: 25.0 mg/kg/injection, schedule: Q01DX Z (ip), vehicle: methylcellulose (MC) 96 % of control

CC(C)C[C@H]1C(=O)N2CCC[C@H]2[C@]2(O)O[C@](NC(=O)[C@@H]3C=C4c5cccc6[nH]c(Br)c(c56)C[C@H]4N(C)C3)(C(C)C)C(=O)N12
inactive: [18] 105 % of control | [19] 106 % of control
